Experimental findings from patent US20250353873A1, “COMPOUNDS AND METHODS FOR MODULATING APOE EXPRESSION” (Ionis Pharmaceuticals, Inc., priority 2024, published 2025) are described below.

This data set has as its system human APOE RNA. Kind of data set: Activity in APOE C57BL/6NTac-Apoeem7250 knock-in mice, single ICV bolus, 8 weeks (Example 11). In kind it is in vivo. Particulars: for APOE RNA (% control) Cortex / APOE RNA (% control) Spinal Cord: single ICV bolus 300 μg, 8 weeks post treatment, normalized to mouse Ppia. On the procedure: Modified oligonucleotides described above were tested in the APOE C57BL/6NTac-Apoeem7250 knock-in mouse model described above.
Each mouse received a single ICV bolus of 300 μg of modified oligonucleotide. A group of 3-4 mice received a single ICV bolus with PBS as a negative control.
Eight weeks post treatment, mice were sacrificed and RNA was extracted from cortical brain tissue and spinal cord for quantitative real-time RT-PCR analysis of RNA expression of APOE using human primer probe set RTS3073 (described herein above). APOE RNA levels were normalized to mouse Ppia. Mouse Ppia was amplified using primer probe set m_cyclo24 (described herein above). Results are presented as percent human APOE RNA relative to the amount of human APOE RNA in PBS treated animals, (% control). Each experiment is identified in separate tables below.

Strand notation (5' to 3'): a small letter for the sugar, then the base; units joined by * are phosphorothioate-linked, units joined directly phosphodiester-linked; [ ] holds rarer units or linkages, { } end groups; capitals alone tell only the bases. [ms] = mesyl phosphoramidate linkage; e = 2'-O-(2-methoxyethyl) (MOE); k = constrained ethyl (cEt); [5mC] = 5-methylcytosine; d = 2'-deoxy (DNA)

With “1809691: mixed MOE/cEt gapmer CTTGGTGAATCTTTATTAA, sugar eeeekddddddddddkeek, linkages sosssszzzssssszoss (e[5mC]*eTeT*eG*kG*dT*dG[ms]dA[ms]dA[ms]dT*d[5mC]*dT*dT*dT*dA[ms]kTeT*eA*kA) [compound 1809691]”, the “APOE RNA (% control) Cortex” value was 27 % control and the “APOE RNA (% control) Spinal Cord” value stood at 17 % control.

Take “1809813 (eT*eTeGkG*dT*dG[ms]dA[ms]dA[ms]dT*d[5mC]*dT*dT*dT*dA[ms]kT*kT*eA*eA*eA*e[5mC]; antisense) [Compound 1809813]”: the “APOE RNA (% control) Cortex” value was determined as 37 % control and the “APOE RNA (% control) Spinal Cord” value was found to be 32 % control.

In the case of “1809745: mixed MOE/cEt gapmer CTTGGTGAATCTTTATTAAAC, sugar eeeeekddddddddddeeeee, linkages zsoooszzsssssszsoosz (e[5mC][ms]eT*eTeGeGkT*dG[ms]dA[ms]dA*dT*d[5mC]*dT*dT*dT*dA[ms]dT*eTeAeA*eA[ms]e[5mC]) [compound 1809745]”, the “APOE RNA (% control) Cortex” value was 26 % control and the “APOE RNA (% control) Spinal Cord” value was found to be 16 % control.

Consider “1810069: mixed MOE/cEt gapmer CTTGGTGAATCTTTATTAAAC, sugar eeeeekddddddddddeeeee, linkages zsossszzzssssszsoosz (e[5mC][ms]eT*eTeG*eG*kT*dG[ms]dA[ms]dA[ms]dT*d[5mC]*dT*dT*dT*dA[ms]dT*eTeAeA*eA[ms]e[5mC]) [compound 1810069]”, for which the “APOE RNA (% control) Cortex” value was 24 % control and the “APOE RNA (% control) Spinal Cord” value is 27 % control.

For “1652907: 5-10-5 MOE gapmer GGTGAATCTTTATTAAACTA, linkages soooszzssssssssooss (antisense eG*eGeTeGeA*dA[ms]dT[ms]d[5mC]*dT*dT*dT*dA*dT*dT*dA*eAeAe[5mC]*eT*eA) [compound 1652907]”, the “APOE RNA (% control) Cortex” value was found to be 54 % control and the “APOE RNA (% control) Spinal Cord” value came out at 16 % control.

Turning to “1809818 (eT*eTeGkG*dT*dG[ms]dA[ms]dA[ms]dT*d[5mC]*dT*dT*dT*dA[ms]kT*kTeAeA*eA*e[5mC]; antisense) [Compound 1809818]”, the “APOE RNA (% control) Cortex” value was determined as 42 % control and the “APOE RNA (% control) Spinal Cord” value was 36 % control.

Take “1652918: 6-10-4 MOE gapmer GGTGAATCTTTATTAAACTA, linkages sooooozzzsssssssoss (antisense eG*eGeTeGeAeAdT[ms]d[5mC][ms]dT[ms]dT*dT*dA*dT*dT*dA*dA*eAe[5mC]*eT*eA) [compound 1652918]”: the “APOE RNA (% control) Cortex” value is listed as 91 % control and the “APOE RNA (% control) Spinal Cord” value is 47 % control.

Regarding “Compound No. 1517578: comparator of WO 2022/066956; CTTGGTGAATCTTTATTAAA, sugar eeeeeddddddddddeeeee, linkages sooosssssssssssooss (MOE gapmer, mixed PS/PO linkages, chemistry not fully specified) [reference compound]”, the “APOE RNA (% control) Cortex” value is 66 % control and the “APOE RNA (% control) Spinal Cord” value is 47 % control. Besides, the “reduction of human APOE RNA in the cortex” value (APOE knock-in mouse model, 8 weeks post administration, assay of Example 11) turned out to be 34%.

In the case of “1810063: mixed MOE/cEt gapmer CTTGGTGAATCTTTATTAAAC, sugar eeeeeeddddddddddkkeee, linkages ssoosszzzssssszsooss (e[5mC]*eT*eTeGeG*eT*dG[ms]dA[ms]dA[ms]dT*d[5mC]*dT*dT*dT*dA[ms]dT*kTkAeA*eA*e[5mC]) [compound 1810063]”, the “APOE RNA (% control) Cortex” value is recorded as 43 % control and the “APOE RNA (% control) Spinal Cord” value was 40 % control.

Regarding “1809741: mixed MOE/cEt gapmer CTTGGTGAATCTTTATTAAAC, sugar eeeeekddddddddddeeeee, linkages ssoooszzsssssszsooss (e[5mC]*eT*eTeGeGkT*dG[ms]dA[ms]dA*dT*d[5mC]*dT*dT*dT*dA[ms]dT*eTeAeA*eA*e[5mC]) [compound 1809741]”, the “APOE RNA (% control) Cortex” value is recorded as 33 % control and the “APOE RNA (% control) Spinal Cord” value stood at 28 % control.
